The nature of series [1]: AUC in rat at 1 mg/kg, po. Type of series: ADME, organism-based. Particulars: in vivo.
The nature of series [2]: Clearance in rat at 1 mg/kg, po or 0.1 mg/kg, iv. The class given is ADME, organism-based. Particulars: in vivo.
The nature of series [3]: Oral bioavailability in rat at 1 mg/kg. Particulars: in vivo. The class given is ADME, organism-based.
Series [4] can be described thus: Kinetic solubility of the compound in second fluid of disintegration test of the Japanese Pharmacopoeia at pH 6.8 by HPLC analysis.
The target of series [5] is T1, Nuclear receptor ROR-gamma (Homo sapiens, UniProt P51449).
T1 sequence (P51449 whole entry): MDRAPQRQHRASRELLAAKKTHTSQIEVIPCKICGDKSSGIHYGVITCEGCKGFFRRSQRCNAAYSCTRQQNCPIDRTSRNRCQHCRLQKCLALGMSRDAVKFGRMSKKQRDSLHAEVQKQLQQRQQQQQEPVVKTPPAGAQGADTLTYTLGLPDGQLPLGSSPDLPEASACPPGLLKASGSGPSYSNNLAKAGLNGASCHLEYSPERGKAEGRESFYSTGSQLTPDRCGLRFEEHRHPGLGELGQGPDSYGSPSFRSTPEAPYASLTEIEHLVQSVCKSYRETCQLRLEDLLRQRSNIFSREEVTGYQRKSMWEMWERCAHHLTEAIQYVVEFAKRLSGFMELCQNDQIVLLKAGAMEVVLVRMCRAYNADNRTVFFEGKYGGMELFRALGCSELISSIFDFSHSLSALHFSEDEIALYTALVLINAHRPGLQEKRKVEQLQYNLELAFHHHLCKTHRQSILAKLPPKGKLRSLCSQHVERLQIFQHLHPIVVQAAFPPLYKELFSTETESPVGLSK
Briefly: Displacement of BODIPY-labeled-(R)-N-(2-(3,5-difluoro-4-(trimethylsilyl)phenylamino)-1-(4-(methoxymethyl)phenyl)-2-oxoethyl)-5-(2-((1-(difluoroboryl)-3,5-dimethyl-1H-pyrrol-2-yl)methylene)-2H-pyrrol-5-yl)pentanamide from human His-tagged RORgammat after 20 mins by TR-FRET assay. Background: In TR-FRET formats the signal depends on donor and acceptor labels being close together.

The target of series [6] is T1, Nuclear receptor ROR-gamma. The experiment in a line: Inverse agonist activity at RORgammat (unknown origin) expressed in human Jurkat cells assessed as inhibition of transcriptional activity after overnight incubation by human IL-17 ROR response element driven-bright-glo luciferase reporter gene assay. Type of series: cell-based.
The nature of series [7]: Lipophilicity, log D of the compound at pH 7.4. The class given is physicochemical. Particulars: buffer.
The test system of a further series is Rattus norvegicus. Briefly: In vivo inverse agonist activity at RORgammat in po dosed Lewis rat experimental autoimmune encephalomyelitis model assessed as inhibition of IL-17A mRNA levels in popliteal lymph nodes administered twice daily for 5 days by qRT-PCR analysis. The class given is functional. Conditions: 120 h, read-out: MED. A general note: Real-time PCR tracks product formation cycle by cycle.

The nature of another series: tissue or blood. Conditions: Rattus norvegicus, Lewis.

This note sets out measurements from ChEMBL document CHEMBL4219064, “Identification of novel quinazolinedione derivatives as RORγt inverse agonist” (Bioorg Med Chem, 2018).

≈ marks a conversion by molar mass, not a printed value. A value given as a limit tells only on which side of the number the result lay.

Description for tissue or blood: Inverse agonist activity at RORgammat in Lewis rat whole blood assessed as inhibition of IL-17A production incubated for 1 hr followed by PMA/ionomycin stimulation measured after 24 hrs by ELISA

The term AUC denotes the area under the concentration-time curve, a measure of exposure. As a reminder, the bioavailability is the share of a dose that reaches the circulation, judged against a reference dose that is usually intravenous. Low readings indicate poor availability, high ones good availability. `CCn1c(=O)n(CC2CC2)c(=O)c2cc(NC(=O)CC(C)CC(=O)Nc3ccc(C#N)c(Cl)c3)ccc21` (racemic) showed an AUC in [1] of 10 ng·h/mL. Also, in [2], the clearance is 44 mL/min/kg. The bioavailability in series [3] is 2.7%.
As usually defined, the solubility (kinetic) is solubility judged after dilution from a stock solution rather than from solid. In the case of `CCn1ccc2cc(NC(=O)CC(C)CC(=O)Nc3ccc(C#N)c(Cl)c3)ccc21` (racemic), the solubility (kinetic) in series [4] is 0.1 µg/mL (≈ 0.236 µM).
A word on the IC50: it is the point on the concentration scale where inhibition reaches its midpoint. On to `CCn1c2ccccc2c2cc(NC(=O)CC(C)CC(=O)Nc3ccccc3C#N)ccc21` (racemic), for which the IC50 in series [5] is greater than 10 µM; in series [6], greater than 30 µM.
Usually logD stands for lipophilicity at a set pH, counting ionised and neutral species. Read a low logD as lower lipophilicity. Turning to `CCn1c(=O)c2cc(NC(=O)CC(C)CC(=O)Nc3ccc(C#N)c(Cl)c3)ccc2n(CC)c1=O` (racemic), in [4], the solubility (kinetic) was determined as 42 µg/mL (≈ 84.7 µM). The molecule further gave a logD in series [7] of 2.99. The molecule further showed an AUC in series [1] of 39 ng·h/mL. Also, in series [2], the clearance is 26.8 mL/min/kg. Also, the bioavailability in [3] worked out at 6.2%.
In the case of `CCn1c2c(c3cc(NC(=O)CC(C)CC(=O)Nc4ccc(C#N)cc4)ccc31)CCCC2` (racemic), the solubility (kinetic) in series [4] was 0.06 µg/mL (≈ 0.136 µM).
Molecule `CC(CC(=O)Nc1ccc(C#N)cc1)CC(=O)Nc1ccc2[nH]c3c(c2c1)CCCC3` (racemic) showed a solubility (kinetic) in series [4] of 0.19 µg/mL (≈ 0.458 µM).
On to `CCN1C(=O)C(C)Oc2cc(NC(=O)CC(C)CC(=O)Nc3ccc(C#N)c(Cl)c3)ccc21` (racemic), for which, in series [4], the kinetic solubility turned out to be 23 µg/mL (≈ 49 µM). The molecule also displayed a logD in [7] of 2.66.
Molecule `CCC1Oc2cc(NC(=O)CC(C)CC(=O)Nc3ccc(C#N)c(Cl)c3)ccc2N(CC)C1=O` (racemic) had a solubility (kinetic) in series [4] of 5.6 µg/mL (≈ 11.6 µM).
On the same count and under the same terms, the value for `CCn1c(=O)oc2cc(NC(=O)CC(C)CC(=O)Nc3ccc(C#N)c(Cl)c3)ccc21` (racemic) was 0.9 µg/mL (≈ 2.04 µM); that for `CCN1C(=O)COc2cc(NC(=O)CC(C)CC(=O)Nc3ccc(C#N)c(Cl)c3)ccc21` (racemic) was 12 µg/mL (≈ 26.4 µM).
For the molecule `CC(CC(=O)Nc1ccc(C#N)c(Cl)c1)CC(=O)Nc1ccc2c(c1)c(=O)n(CC1CC1)c(=O)n2CC1CC1` (racemic), the AUC in series [1] is 106 ng·h/mL. Besides, in [2], the clearance was 11.2 mL/min/kg. Further, the bioavailability in [3] came to 7.1%. In addition, the minimal effective dose in the series with Rattus norvegicus came to 100 mg/kg. For the same molecule, in the series “tissue or blood”, inhibition was half-maximal at 0.057 µM (IC50).
Take `CCn1c(=O)c2cc(NC(=O)CC(C)CC(=O)Nc3ccc(C#N)c(Cl)c3)ccc2n(CC2CC2)c1=O` (racemic): the AUC in series [1] was 33 ng·h/mL. Besides, the clearance in series [2] was 28.4 mL/min/kg. In addition, in series [3], the bioavailability is 5.5%.
For the molecule `CCn1c2ccccc2c2cc(NC(=O)CC(C)CC(=O)Nc3ccc(C#N)c(Cl)c3)ccc21` (racemic), the solubility (kinetic) in series [4] is 0.15 µg/mL (≈ 0.317 µM). This molecule had a logD in [7] of 3.76.
